Values quoted from earlier work as cited in patent US20260092079A1, “MANUFACTURE METHOD FOR AQUEOUS FORMULATION OF MANGANESE-CONTAINING COORDINATION COMPLEX, FORMULATION, AND METHOD OF TREATMENT” (GALERA LABS, LLC, priority 2019, published 2026).

What was measured:
[1] = system: VEGFr inhibitor-induced pulmonary disease; details: rat model
oral mucositis = details: head-and-neck cancer patients undergoing chemoradiation therapy
[2] = system: experimental model of colitis; details: rats
[3] = system: radiation-induced oral mucositis; details: hamster, acute radiation-induced oral mucositis
[4] = system: lethal total body irradiation; details: adult mice
inflammation = details: rat model
[5] = system: collagen-induced arthritis; details: rat

SMILES	VEGFr inhibitor-induced pulmonary disease [1]	Oral mucositis (oral mucositis)	Injury to the colon [2]	Radiation damage [3]	Radiation damage [4]	Inflammation (inflammation)	Joint disease [5]
[Cl][Mn][Cl].c1cc2nc(c1)CN[C@H]1CCCC[C@@H]1NCCN[C@H]1CCCC[C@@H]1NC2 [GC4419]	attenuate VEGFr inhibitor-induced pulmonary disease	reduce oral mucositis					
[Cl-].[Cl-].[Mn+2].c1cc2nc(c1)CN[C@@H]1CCCC[C@H]1NCCN[C@@H]1CCCC[C@H]1NC2 [GC4403]			very significantly reduce the injury to the colon	attenuate the radiation damage	attenuate the radiation damage	inhibit inflammation	prevent joint disease
